Data published in patent US9642804B2, “Cationic lipids with various head groups for oligonucleotide delivery” (priority 2009, dated 2017).

Legend:
[1] = tested on: mRNA transcript for the ApoB gene; assay: Rhesus monkey in vivo efficacy, serum LDL-C as surrogate marker of ApoB mRNA reduction; parameters: species or system Macaca mulatta (rhesus) monkey; details: ApoB siRNA RDV; 3.6 mg/kilogram siRNA intravenous; average of two monkeys
Description: LNPs utilizing Compounds 9 or 12 in the nominal compositions described above, were evaluated for in vivo efficacy and increases in alanine amino transferases (ALT) and aspartate amino transferase (AST) in male or female Macaca mulatta (rhesus) monkeys. The siRNA targets the mRNA transcript for the ApoB gene (Accession # XM 001097404). […] The RDVs (containing siRNA) in PBS vehicle were administered by intravenous injection in the saphenous vein at an injection rate of 20 mL/minute to a dose level of 3.6 mg/kilogram siRNA. The injection volumes were from 1.9 to 2.1 mL/kilogram and monkeys ranged in weight from 2.5 to 4.5 kilograms. Each RDV or PBS control was administered to two monkeys. At multiple days post dose, 1 mL blood samples were drawn from the femoral artery for serum chemistry analysis. Monkeys were fasted overnight prior to blood draws. Serum ALT and AST analysis were performed on the Siemens Advia 1800 Clinical Chemistry Analyzer utilizing the Siemens alanine aminotransferase (Cat# 03039631) and aspartate aminotransferase (Cat# 03039631) reagents. As a measure of efficacy, LDL-C was monitored as a downstream surrogate marker of ApoB mRNA reduction. At eight days post systemic administration, of RDVs containing Compounds 9 or 12, reduced serum levels of LDL-C to less than 50% of pre-dose levels (FIG. 4). […]

[2] = tested on: mRNA transcript for the firefly (Photinus pyralis) luciferase gene; assay: Mouse in vivo efficacy, luciferase mouse model (liver bioluminescence, IVIS); details: for Average % Inhibition of Bioluminescence: LNP (cationic lipid/cholesterol/PEG-DMG 60/38/2) with Luc siRNA, tail vein, 48 hours post dose, relative to pre-dose
Description: (§1) LNPs utilizing Compound 9 or 12, in the nominal compositions described immediately above, were evaluated for in vivo efficacy and induction of inflammatory cytokines in a luciferase mouse model. The siRNA targets the mRNA transcript for the firefly (Photinus pyralis) luciferase gene (Accession # M15077). […] The in vivo luciferase model employs a transgenic mouse in which the firefly luciferase coding sequence is present in all cells. ROSA26-LoxP-Stop-LoxP-Luc (LSL-Luc) transgenic mice licensed from the Dana Farber Cancer Institute are induced to express the Luciferase gene by first removing the LSL sequence with a recombinant Ad-Cre virus (Vector Biolabs). Due to the organo-tropic nature of the virus, expression is limited to the liver when delivered via tail vein injection. Luciferase expression levels in liver are quantitated by measuring light output, using an IVIS imager (Xenogen) following administration of the luciferin substrate (Caliper Life Sciences). Pre-dose luminescence levels are measured prior to administration of the RDVs. Luciferin in PBS (15 mg/mL) is intraperitoneally (IP) injected in a volume of 150 uL. After a four minute incubation period mice are anesthetized with isoflurane and placed in the IVIS. imager. The RDVs (containing siRNA) in PBS vehicle were tail vein injected in a volume of 0.2 mL. Final dose levels ranged from 0.3 to 3 mg/kg siRNA. PBS vehicle alone was dosed as a control. Three hours post dose, mice were bled retro-orbitally to obtain plasma for cytokine analysis. Mice were imaged 48 hours post dose using the method described above. Changes in luciferin light output directly correlate with luciferase mRNA levels and represent an indirect measure of luciferase siRNA activity. In vivo efficacy results are expressed as % inhibition of luminescence relative to pre-dose luminescence levels. Plasma cytokine levels were determined using the SearchLight multiplexed cytokine chemoluminescent array (Pierce/Thermo). Systemic administration of the luciferase siRNA RDVs decreased luciferase expression in a dose dependant manner. […] Compound 12, (Table 1 and FIG. 2). […] However, average cytokine induction was lower in the animals dosed with the Compound 9 RDV, relative to the Compound 12 RDV.(FIG. 1).

cytokines IL-6 and mKC = assay: Mouse in vivo cytokine induction 3 hours post injection (plasma, SearchLight array); details: Luc siRNA RDV; plasma three hours post dose
Description: as §1

[3] = Rat in vivo toxicity, serum ALT and AST; parameters: species or system Sprague-Dawley rat; details: ApoB siRNA RDV; for LFTs relative to PBS control dosed rats: serum 24 hours after dosing
Description: After LNP administration, rats are placed in cages with normal diet and water present. Six hours post dose, food is removed from the cages. Animal necropsy is performed 24 hours after LNP dosing. Rats are anesthetized under isoflurane for 5 minutes, then maintained under anesthesia by placing them in nose cones continuing the delivery of isoflurane until ex-sanguination is completed. Blood is collected from the vena cava using a 23 guage butterfly venipuncture set and aliquoted to serum separator vacutainers for serum chemistry analysis. Punches of the excised caudate liver lobe are taken and placed in RNA Later (Ambion) for mRNA analysis. Preserved liver tissue was homogenized and total RNA isolated using a Qiagen bead mill and the Qiagen miRNA-Easy RNA isolation kit following the manufacturer's instructions. Liver ApoB mRNA levels were determined by quantitative RT-PCR. Message was amplified from purified RNA utilizing a rat ApoB commercial probe set (Applied Biosystems Cat # RN01499054_ml). The PCR reaction was performed on an ABI 7500 instrument with a 96-well Fast Block. The ApoB mRNA level is normalized to the housekeeping PPIB (NM 011149) mRNA. PPIB mRNA levels were determined by RT-PCR using a commercial probe set (Applied Biosytems Cat. No. Mm00478295_ml). Results are expressed as a ratio of ApoB mRNA/PPIB mRNA. All mRNA data is expressed relative to the PBS control dose. Serum ALT and AST analysis were performed on the Siemens Advia 1800 Clinical Chemistry Analyzer utilizing the Siemens alanine aminotransferase (Cat# 03039631) and aspartate aminotransferase (Cat# 03039631) reagents.

[4] = Rhesus monkey in vivo toxicity, serum ALT and AST; parameters: species or system Macaca mulatta (rhesus) monkey; details: ApoB siRNA RDV; 3.6 mg/kilogram siRNA intravenous
Description: LNPs utilizing Compounds 9 or 12 in the nominal compositions described above, were evaluated for in vivo efficacy and increases in alanine amino transferases (ALT) and aspartate amino transferase (AST) in male or female Macaca mulatta (rhesus) monkeys. The siRNA targets the mRNA transcript for the ApoB gene (Accession # XM 001097404). […] The RDVs (containing siRNA) in PBS vehicle were administered by intravenous injection in the saphenous vein at an injection rate of 20 mL/minute to a dose level of 3.6 mg/kilogram siRNA. The injection volumes were from 1.9 to 2.1 mL/kilogram and monkeys ranged in weight from 2.5 to 4.5 kilograms. Each RDV or PBS control was administered to two monkeys. At multiple days post dose, 1 mL blood samples were drawn from the femoral artery for serum chemistry analysis. Monkeys were fasted overnight prior to blood draws. Serum ALT and AST analysis were performed on the Siemens Advia 1800 Clinical Chemistry Analyzer utilizing the Siemens alanine aminotransferase (Cat# 03039631) and aspartate aminotransferase (Cat# 03039631) reagents. As a measure of efficacy, LDL-C was monitored as a downstream surrogate marker of ApoB mRNA reduction. At eight days post systemic administration, of RDVs containing Compounds 9 or 12, reduced serum levels of LDL-C to less than 50% of pre-dose levels (FIG. 4). The RDV containing Compound 9 reduced LDL-C levels to a greater extent than the RDV containing Compound 12 (ave.: −63% vs. −53%). ALT and AST were elevated relative to predose values in monkeys treated with both Compounds 9 and 12 RDVs (FIG. 4).

[5] = rat serum 24 hours after dosing

Row | SMILES | Reduction of LDL-C levels (ave.) [1] | Average % Inhibition of Bioluminescence ([2]; 0.1 mg Kg^−1) | Average % Inhibition of Bioluminescence ([2]; 0.3 mg Kg^−1) | Average % Inhibition of Bioluminescence ([2]; 1.0 mg Kg^−1) | Efficacy in decreasing luciferase expression, comparison of the RDVs ([2]; Luc siRNA RDV, Compound 9 RDV versus Compound 12 RDV) | Average cytokine induction, Compound 9 RDV relative to Compound 12 RDV (cytokines IL-6 and mKC) | Mouse plasma level of IL-6 relative to the PBS control (cytokines IL-6 and mKC) | Mouse plasma level of mKC relative to the PBS control (cytokines IL-6 and mKC) | ALT levels, comparison of the RDVs [3, 5] | LFTs relative to PBS control dosed rats [3] | ALT relative to predose values [4] | AST relative to predose values [4] | Elevation of ALT, comparison of the RDVs [4] | AST levels, comparison of the RDVs [3, 5] | Elevation of AST, comparison of the RDVs [4]
1 | CCCCCCCC/C=C\CCCCCCCCOC[C@@H](COCCCCCCO[C@H]1CC[C@@]2(C)C(=CC[C@@H]3C2CC[C@@]2(C)C3CC[C@@H]2[C@H](C)CCCC(C)C)C1)N(C)C (stereo partly shown) [Compound 9] | −63% | 80% | 89% | 91% | Greater efficacy | lower | significantly increased | significantly increased | increased to a greater extent | An increase in LFTs | elevated | elevated | approximately equivalent |  | 
2 | CCCCC/C=C\C/C=C\CCCCCCCCOCC(CN(C)C)OCCCCCCCCO[C@H]1CC[C@@]2(C)C(=CC[C@H]3[C@@H]4CC[C@H]([C@H](C)CCCC(C)C)[C@@]4(C)CC[C@@H]32)C1 (stereo partly shown) [Compound 12, S-Octyl CLinDMA, reference compound] | −53% | 54% | 74% | 88% |  |  | significantly increased | significantly increased |  | An increase in LFTs | elevated | elevated | approximately equivalent | increased more strongly | elevated to a markedly higher level
